Data set [1] deals with Peripheral blood mononuclear cells (PBMC). The data set can be described thus: Cytokine Induction in Human Cells (in vitro human blood cell system, IFN and TNF secreted into culture media). The data set is classed as cell-based. More on the design: key to Lowest Effective Concentration (μM) Tumor Necrosis Factor / Lowest Effective Concentration (μM) Interferon: *: no induction was seen at any of the tested concentrations. Particulars: 18 to 24 hours, tested 30-0.014 μM. An excerpt:
An in vitro human blood cell system is used to assess cytokine induction. Activity is based on the measurement of interferon and tumor necrosis factor (α) (IFN and TNF, respectively) secreted into culture media as described by Testerman et. al. In “Cytokine Induction by the Immunomodulators Imiquimod and S-27609”, Journal of Leukocyte Biology, 58, 365-372 (September, 1995).
Whole blood from healthy human donors is collected by venipuncture into EDTA vacutainer tubes. Peripheral blood mononuclear cells (PBMC) are separated from whole blood by density gradient centrifugation using Histopaque®-1077. Blood is diluted 1:1 with Dulbecco's Phosphate Buffered Saline (DPBS) or Hank's Balanced Salts Solution (HBSS). The PBMC layer is collected and washed twice with DPBS or HBSS and resuspended at 4×10^6 cells/mL in RPMI complete. The PBMC suspension is added to 48 well flat bottom sterile tissue culture plates (Costar, Cambridge, Mass. or Becton Dickinson Labware, Lincoln Park, N.J.) containing an equal volume of RPMI complete media containing test compound.
The compounds are solubilized in dimethyl sulfoxide (DMSO). The DMSO concentration should not exceed a final concentration of 1% for addition to the culture wells. The compounds are generally tested at concentrations ranging from 30-0.014 μM.
The solution of test compound is added at 60 μM to the first well containing RPMI complete and serial 3 fold dilutions are made in the wells. The PBMC suspension is then added to the wells in an equal volume, bringing the test compound concentrations to the desired range (30-0.014 μM). The final concentration of PBMC suspension is 2×10^6 cells/mL. The plates are covered with sterile plastic lids, mixed gently and then incubated for 18 to 24 hours at 37° C. in a 5% carbon dioxide atmosphere.
Following incubation the plates are centrifuged for 10 minutes at 1000 rpm (˜200×g) at 4° C. The cell-free culture supernatant is removed with a sterile polypropylene pipet and transferred to sterile polypropylene tubes. Samples are maintained at −30 to −70° C. until analysis. The samples are analyzed for interferon (α) by ELISA and for tumor necrosis factor (α) by ELISA or IGEN Assay.
Interferon (α) concentration is determined by ELISA using a Human Multi-Species kit from PBL Biomedical Laboratories, New Brunswick, N.J. Results are expressed in pg/mL.
Tumor necrosis factor (α) (TNF) concentration is determined using ELISA kits available from Biosource International, Camarillo, Calif. Alternately, the TNF concentration can be determined by Origen® M-Series Immunoassay and read on an IGEN M-8 analyzer from IGEN International, Gaithersburg, Md. The immunoassay uses a human TNF capture and detection antibody pair from Biosource International, Camarillo, Calif. Results are expressed in pg/mL.
The table below lists the lowest concentration found to induce interferon and the lowest concentration found to induce tumor necrosis factor for each compound.

[2] abbreviates: Homo sapiens, PBMC, lowest concentration found to induce interferon (α), ELISA, read-out: Lowest Effective Concentration (μM) Interferon.
[3] abbreviates: Homo sapiens, PBMC, lowest concentration found to induce tumor necrosis factor (α), ELISA or IGEN assay, read-out: Lowest Effective Concentration (μM) Tumor Necrosis Factor.
Where [4] appears, read: lowest concentration found to induce tumor necrosis factor (α), ELISA or IGEN assay.
[5] abbreviates: lowest concentration found to induce interferon (α), ELISA.

Where a name gives a salt, the structure may show the parent alone. Read-outs that look alike come from different tables or passages of the source.

In turn, `Nc1nc2ccccc2c2c1ncn2CCOCCCc1cccc(C(=O)O)c1` (as salt: trifluoroacetate) [Example 12, 3-{3-[2-(4-Amino-1H-imidazo[4,5-c]quinolin-1-yl)ethoxy]propyl}benzoic acid bis(trifluoroacetate)] showed a melting point of 138 to 140 °C.

Take `CCCCc1nc2c(N)nc3c(c2n1CCOCc1ccc(C#N)cc1)CCCC3` [Example 93]: the values for the minimal effective concentration in data set [1] (setting [2]) and in data set [1] (setting [3]) were 0.12 µM and 10 µM, respectively.

As to `Nc1nc2ccccc2c2c1ncn2CC(OCc1ccccc1)c1ccccc1` (stereo not drawn) [Example 28], the minimal effective concentration in data set [1] (setting [2]) amounted to 10 µM. Besides, the “Lowest Effective Concentration (μM) Tumor Necrosis Factor” value in data set [1] (setting [4]) was “*”.

Take `Nc1nc2ccccc2c2c1ncn2CCOc1ccccc1` [Example 105, 1-(2-Phenoxyethyl)-1H-imidazo[4,5-c]quinolin-4-amine]: the figures for the minimal effective concentration in data set [1] (setting [2]) and in data set [1] (setting [3]) were 0.37 µM and 1.11 µM, respectively.

In the case of `CC(Cn1cnc2c(N)nc3ccccc3c21)Oc1ccc(-n2ccnc2)cc1` (stereo not drawn) [Example 98], the minimal effective concentration in data set [1] (setting [2]) came out at 0.37 µM. Moreover, the “Lowest Effective Concentration (μM) Tumor Necrosis Factor” value in data set [1] (setting [4]) was “*”.

Turning to `CC(C)C(COCc1cccc(C(F)(F)F)c1)n1cnc2c(N)nc3ccccc3c21` (stereo not drawn) [Example 63], the “Lowest Effective Concentration (μM) Interferon” value in data set [1] (setting [5]) is recorded as “*”. Also, the “Lowest Effective Concentration (μM) Tumor Necrosis Factor” value in data set [1] (setting [4]) is listed as “*”.

Turning to `CCC(COCc1cccc(OC(F)(F)F)c1)n1cnc2c(N)nc3ccccc3c21` (stereo not drawn) [Example 45], the minimal effective concentration in data set [1] (setting [2]) came to 0.37 µM. In addition, the “Lowest Effective Concentration (μM) Tumor Necrosis Factor” value in data set [1] (setting [4]) is “*”.

In the case of `CCCCc1nc2c(N)nc3c(c2n1CCOCc1ccc(C(F)(F)F)cc1)CCCC3` [Example 91], the minimal effective concentration in data set [1] (setting [2]) came out at 0.37 µM; in data set [1] (setting [3]), 10 µM.

On to `CCC(COCc1ccc(Br)cc1)n1cnc2c(N)nc3ccccc3c21` (stereo not drawn) [Example 27], for which the minimal effective concentration in data set [1] (setting [2]) was 0.12 µM. Besides, the “Lowest Effective Concentration (μM) Tumor Necrosis Factor” value in data set [1] (setting [4]) is reported as “*”.

For the molecule `CC(Cn1cnc2c(N)nc3ccccc3c21)Oc1ccccc1[N+](=O)[O-]` (stereo not drawn) [Example 51], in data set [1] (setting [2]), the minimal effective concentration was determined as 0.37 µM. Besides, the “Lowest Effective Concentration (μM) Tumor Necrosis Factor” value in data set [1] (setting [4]) is reported as “*”.

Turning to `CN(C)c1ccc(CCCOCCn2cnc3c(N)nc4ccccc4c32)cc1` [Example 114, 1-(2-{3-[4-(Dimethylamino)phenyl]propoxy}ethyl)-1H-imidazo[4,5-c]quinolin-4-amine], the minimal effective concentration in data set [1] (setting [2]) was determined as 0.12 µM; in data set [1] (setting [3]) it was 0.37 µM.

On to `Cc1cccc(COC(C)(C)Cn2cnc3c(N)nc4ccccc4c32)c1` [Example 37], for which the “Lowest Effective Concentration (μM) Interferon” value in data set [1] (setting [5]) is on record as “*”. The “Lowest Effective Concentration (μM) Tumor Necrosis Factor” value in data set [1] (setting [4]) is “*”.

Take `CCC(COCc1ccccc1Cl)n1cnc2c(N)nc3ccccc3c21` (stereo not drawn) [Example 40]: in data set [1] (setting [2]), the minimal effective concentration came to 0.12 µM. Further, in data set [1] (setting [4]), the “Lowest Effective Concentration (μM) Tumor Necrosis Factor” value is reported as “*”.

In the case of `CCCCc1nc2c(N)nc3c(c2n1CCOCc1cccc(C#N)c1)CCCC3` [Example 94], the results for the minimal effective concentration in data set [1] (setting [2]) and in data set [1] (setting [3]) were 0.01 µM and 3.33 µM, respectively.

On to `CC(C)C(COCc1ccc(Cl)c(Cl)c1)n1cnc2c(N)nc3ccccc3c21` (stereo not drawn) [Example 62], for which, in data set [1] (setting [3]), the minimal effective concentration is 3.33 µM. The “Lowest Effective Concentration (μM) Interferon” value in data set [1] (setting [5]) is on record as “*”.

Consider `Nc1nc2ccccc2c2c1ncn2COCCOc1ccc([N+](=O)[O-])cc1` [Example 83], for which, in data set [1] (setting [2]), the minimal effective concentration worked out at 0.37 µM. In data set [1] (setting [4]), the “Lowest Effective Concentration (μM) Tumor Necrosis Factor” value is reported as “*”.

Turning to `CCOCc1nc2c(N)nc3ccccc3c2n1CCOCCCc1ccccc1` [Example 16, 2-(Ethoxymethyl)-1-[2-(3-phenylpropoxy)ethyl]-1H-imidazo[4,5-c]quinolin-4-amine Hydrochloride], the minimal effective concentration in data set [1] (setting [2]) amounted to 0.01 µM; in data set [1] (setting [3]), 0.37 µM.

Turning to `Nc1nc2ccccc2c2c1ncn2CCOCCCc1ccc(-n2cccc2)cc1` [Example 11, 1-(2-{3-[4-(1H-1-Pyrrolyl)phenyl]propoxy}ethyl)-1H-imidazo[4,5-c]quinolin-4-amine trifluoroacetate], in data set [1] (setting [2]), the minimal effective concentration is 1.11 µM. In data set [1] (setting [4]), the “Lowest Effective Concentration (μM) Tumor Necrosis Factor” value was “*”.

As to `CC(Cn1cnc2c(N)nc3ccccc3c21)Oc1ccc([N+](=O)[O-])cc1` (stereo not drawn) [Example 54], the minimal effective concentration in data set [1] (setting [2]) is 0.12 µM. Further, the “Lowest Effective Concentration (μM) Tumor Necrosis Factor” value in data set [1] (setting [4]) is “*”.

Regarding `C[C@@H](COCc1ccc(C(C)(C)C)cc1)Cn1cnc2c(N)nc3ccccc3c21` [Example 111], the minimal effective concentration in data set [1] (setting [2]) came to 3.33 µM. The “Lowest Effective Concentration (μM) Tumor Necrosis Factor” value in data set [1] (setting [4]) is recorded as “*”.

For `Cc1ccc(COC(C)Cn2cnc3c(N)nc4ccccc4c32)cc1` (stereo not drawn) [Example 50], the minimal effective concentration in data set [1] (setting [2]) worked out at 3.33 µM. For the same molecule, the “Lowest Effective Concentration (μM) Tumor Necrosis Factor” value in data set [1] (setting [4]) is reported as “*”.

Consider `CCC(COc1ccc(C(C)(C)CC(C)(C)C)cc1)n1cnc2c(N)nc3ccccc3c21` (stereo not drawn) [Example 103], for which, in data set [1] (setting [3]), the minimal effective concentration amounted to 10 µM. Moreover, the “Lowest Effective Concentration (μM) Interferon” value in data set [1] (setting [5]) is listed as “*”.

For the molecule `CCOCc1nc2c(N)nc3ccccc3c2n1CCOCCCOCc1ccccc1` [Example 21, 1-{2-[3-(Benzyloxy)propoxy]ethyl}-2-(ethoxymethyl)-1H-imidazo[4,5-c]quinolin-4-amine], the minimal effective concentration in data set [1] (setting [2]) was determined as 0.12 µM. Moreover, the “Lowest Effective Concentration (μM) Tumor Necrosis Factor” value in data set [1] (setting [4]) is on record as “*”.

For the molecule `Nc1nc2ccccc2c2c1ncn2CCOCCCc1ccc(C(=O)O)cc1` [Example 14, 4-{3-[2-(4-Amino-1H-imidazo[4,5-c]quinolin-1-yl)ethoxy]propyl}benzoic acid trifluoroacetate], the minimal effective concentration in data set [1] (setting [2]) and in data set [1] (setting [3]) was 10 µM throughout.

Turning to `N#Cc1cccc(COCCOCn2cnc3c(N)nc4ccccc4c32)c1` [Example 88], the minimal effective concentration stood at 0.37 µM in data set [1] (setting [2]) and 30 µM in data set [1] (setting [3]).

As to `Nc1nc2ccccc2c2c1ncn2CCOCCCc1ccccc1` [Example 22, 1-[2-(3-Phenylpropoxy)ethyl]-1H-imidazo[4,5-c]quinolin-4-amine], the minimal effective concentration came out at 0.12 µM in data set [1] (setting [2]) and 0.37 µM in data set [1] (setting [3]).

Turning to `Cc1ccc(COCCOCn2cnc3c(N)nc4ccccc4c32)cc1` [Example 85], in data set [1] (setting [2]), the minimal effective concentration amounted to 0.37 µM. Further, in data set [1] (setting [4]), the “Lowest Effective Concentration (μM) Tumor Necrosis Factor” value is reported as “*”.

As for `CC(Cn1cnc2c(N)nc3ccccc3c21)Oc1ccccc1C#N` (stereo not drawn) [Example 97], the minimal effective concentration in data set [1] (setting [2]) stood at 1.11 µM. In addition, the “Lowest Effective Concentration (μM) Tumor Necrosis Factor” value in data set [1] (setting [4]) is “*”.

Regarding `CCC(COCc1cccc(Cl)c1)n1cnc2c(N)nc3ccccc3c21` (stereo not drawn) [Example 47], the minimal effective concentration in data set [1] (lowest concentration found to induce interferon (α), ELISA, read-out: Lowest Effective Concentration (μM) Interferon) is listed as 0.12 µM. Besides, in data set [1] (setting [4]), the “Lowest Effective Concentration (μM) Tumor Necrosis Factor” value is “*”.

Regarding `CC(C)C(COCc1ccc(C#N)cc1)n1cnc2c(N)nc3ccccc3c21` (stereo not drawn) [Example 64], the minimal effective concentration in data set [1] (setting [2]) turned out to be 3.33 µM. For the same molecule, the “Lowest Effective Concentration (μM) Tumor Necrosis Factor” value in data set [1] (setting [4]) was “*”.

`COc1ccc(OC(C)Cn2cnc3c(N)nc4ccccc4c32)cc1` (stereo not drawn) [Example 99]: the minimal effective concentration in data set [1] (setting [2]) came to 0.37 µM. Moreover, the “Lowest Effective Concentration (μM) Tumor Necrosis Factor” value in data set [1] (setting [4]) was “*”.

On to `CC[C@H](COCc1ccc(C#N)cc1)n1cnc2c(N)nc3ccccc3c21` [Example 142, 4-({[(2R)-2-(4-Amino-1H-imidazo[4,5-c]quinolin-1-yl)butyl]oxy}methyl)benzonitrile], for which the minimal effective concentration in data set [1] (setting [2]) and in data set [1] (setting [3]) was 0.04 µM each time.

In general, melting point refers to the temperature of the solid-liquid transition.
